Measured values: article PMC9393390 (Frontiers in Pharmacology, 2022)
Where two headings read alike, the source gives them in different places.

Experiments:
[1] = target: T1, hACE2 (Homo sapiens, UniProt Q9BYF1); assay: Surface plasmon resonance (SPR) binding to immobilized hACE2
T1 construct: purchased Sino Biological
Protocol: The recombinant S-RBD (Sino Biological, Beijing, China) and hACE2 protein (Sino Biological, Beijing, China) were used for surface plasmon resonance (SPR) analysis using a Biacore 8K instrument (Biacore, Uppsala, Sweden) as previously described ([Chu et al., 2018a]; [Chu et al., 2018b]). Each target was immobilized onto flow cells in a CM5 sensor chip (GE Healthcare) via the amine-coupling method. Briefly, S-RBD was diluted in 10 mM pH 5.5 acetate to 20 µg/ml, while hACE2 was diluted in 10 mM pH 4.5 acetate to 20 µg/ml. Then the protein solutions were injected individually on the carboxyl modified sensor surface to form amine bonds. Both S-RBD and hACE2 immobilized levels were about 10,000 RU. Binding analyses were carried out at 25 °C and a flow rate of 30 μl min^−1. The retrieved drugs in a running buffer (1×PBS, 0.05% Tween 20 and 5% dimethyl sulfoxide, pH 7.4) were run over each target at gradient concentrations as indicated. An empty flow cell, without any immobilized protein, was used as a deducted reference. The binding curves were analyzed using a kinetic binding model supplied with Biacore Evaluation Software (GE Healthcare).
To evaluate the retrieved inhibitors against the S-RBD-hACE2, surface plasmon resonance (SPR) was used to determine the binding affinities of the 20 retrieved drugs to S-RBD and hACE2.
SPR analysis was performed to assess the retrieved drugs binding to hACE2 at gradient concentrations. The binding curves were analyzed using a kinetic analysis supplied with Biacore Evaluation Software. Data are presented as RU over time (s). The K D were calculated using a 1:1 binding model.

[2] = target: T2, SARS-CoV-2-RBD (S-RBD) (Severe acute respiratory syndrome coronavirus 2, UniProt P0DTC2); assay: Surface plasmon resonance (SPR) binding to immobilized S-RBD
T2 construct: purchased Sino Biological

[3] = target: T3, S-RBD binding to hACE2 (Homo sapiens, UniProt Q9BYF1); assay: SPR competition binding experiment (S-RBD on immobilized hACE2); conditions: competitive SPR, 40 nM S-RBD, 25 μM to 0.012 μM
T3 construct: purchased Sino Biological
T3 sequence (Q9BYF1 18-740): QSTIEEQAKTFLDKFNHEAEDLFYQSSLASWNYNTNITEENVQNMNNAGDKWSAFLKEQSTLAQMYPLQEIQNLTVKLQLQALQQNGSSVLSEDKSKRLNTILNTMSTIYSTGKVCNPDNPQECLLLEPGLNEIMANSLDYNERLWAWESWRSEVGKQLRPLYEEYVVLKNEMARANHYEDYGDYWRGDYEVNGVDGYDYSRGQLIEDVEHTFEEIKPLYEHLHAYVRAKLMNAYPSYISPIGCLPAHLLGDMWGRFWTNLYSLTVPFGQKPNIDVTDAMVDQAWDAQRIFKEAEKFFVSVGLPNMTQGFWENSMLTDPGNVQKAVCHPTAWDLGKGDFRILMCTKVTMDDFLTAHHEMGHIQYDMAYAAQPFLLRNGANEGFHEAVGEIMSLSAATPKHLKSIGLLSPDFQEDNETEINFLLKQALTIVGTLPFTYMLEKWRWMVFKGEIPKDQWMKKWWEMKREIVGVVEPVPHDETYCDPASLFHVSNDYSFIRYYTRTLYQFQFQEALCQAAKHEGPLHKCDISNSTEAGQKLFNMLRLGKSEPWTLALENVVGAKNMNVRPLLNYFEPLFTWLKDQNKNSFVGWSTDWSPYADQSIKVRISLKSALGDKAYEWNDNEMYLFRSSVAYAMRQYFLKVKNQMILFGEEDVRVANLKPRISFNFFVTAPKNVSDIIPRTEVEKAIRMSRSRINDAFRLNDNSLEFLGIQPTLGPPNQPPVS

[4] = target: S-RBD binding to hACE2 (Severe acute respiratory syndrome coronavirus 2, UniProt P0DTC2); assay: Competitive inhibition ELISA (SARS-CoV-2 inhibitor screening kit); assay type: biochemical; conditions: 1 μM
[5] = SPR, 25 °C, 1:1 binding model, read-out: ACE2 K D
[6] = SPR, 25 °C, 1:1 binding model, read-out: S-RBD K D

T1 sequence (Q9BYF1 18-805): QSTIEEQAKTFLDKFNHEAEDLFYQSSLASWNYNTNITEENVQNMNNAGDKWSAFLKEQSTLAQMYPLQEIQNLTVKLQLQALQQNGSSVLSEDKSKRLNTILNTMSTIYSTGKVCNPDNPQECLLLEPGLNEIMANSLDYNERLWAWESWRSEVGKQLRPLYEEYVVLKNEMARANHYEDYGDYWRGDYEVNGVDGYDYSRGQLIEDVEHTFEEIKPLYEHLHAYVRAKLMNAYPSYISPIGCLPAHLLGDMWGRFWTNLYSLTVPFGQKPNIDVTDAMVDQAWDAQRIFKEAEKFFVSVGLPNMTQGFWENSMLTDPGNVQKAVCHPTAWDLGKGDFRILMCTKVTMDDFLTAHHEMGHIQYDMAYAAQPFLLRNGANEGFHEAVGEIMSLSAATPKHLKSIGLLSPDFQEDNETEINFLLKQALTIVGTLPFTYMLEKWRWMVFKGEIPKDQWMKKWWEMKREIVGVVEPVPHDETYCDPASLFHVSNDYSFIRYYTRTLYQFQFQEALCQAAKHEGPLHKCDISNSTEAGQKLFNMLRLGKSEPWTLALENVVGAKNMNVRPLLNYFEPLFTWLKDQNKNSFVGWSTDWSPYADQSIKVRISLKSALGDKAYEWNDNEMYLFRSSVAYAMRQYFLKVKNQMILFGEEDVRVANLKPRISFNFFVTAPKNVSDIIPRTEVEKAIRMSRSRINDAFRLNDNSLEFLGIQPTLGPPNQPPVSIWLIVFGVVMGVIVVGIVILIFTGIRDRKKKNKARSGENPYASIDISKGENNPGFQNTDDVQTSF

| Compound | Kd [1] [µM] | Kd [2] [µM] | other results |
| --- | --- | --- | --- |
| CCC(C)(C)C(=O)O[C@H]1C[C@@H](C)C=C2C=C[C@H](C)[C@H](CC[C@@H]3C[C@@H](O)CC(=O)O3)[C@H]21 [Simvastatin] | 35.8 | – | – |
| C[C@@H]1[C@H](O)[C@@H](C)/C=C/C=C/C=C/C=C/C=C/C=C/C=C/[C@H](O[C@@H]2O[C@H](C)[C@@H](O)[C@H](N)[C@@H]2O)C[C@@H]2O[C@](O)(C[C@@H](O)C[C@@H](O)[C@H](O)CC[C@@H](O)C[C@@H](O)CC(=O)O[C@H]1C)C[C@H](O)[C@H]2C(=O)O [Amphotericin B] | 9.49 | 1.01 | – |
| COC(=O)C1=CC[C@@]23CC[C@@H]([C@@](C)(/C=C/C=C(\C)C(=O)O)OC2=O)[C@@]3(OC(C)=O)CC1 [Pseudolaric acid B] | 53.8 | – | – |
| Nc1c(Br)cc(Br)cc1CN[C@H]1CC[C@H](O)CC1 [Ambroxol] | – | 21.2 | – |
| Aescin | – | – | Kd [1, 5]: 105 µM |
| O=S(=O)(O)Oc1ccc(C(c2ccc(OS(=O)(=O)O)cc2)c2ccccn2)cc1 [Sodium Picosulfate] | 45.4 | 16 | – |
| O=C(OCC1OC(OC(=O)c2cc(O)c(O)c(OC(=O)c3cc(O)c(O)c(O)c3)c2)C(OC(=O)c2cc(O)c(O)c(OC(=O)c3cc(O)c(O)c(O)c3)c2)C(OC(=O)c2cc(O)c(O)c(OC(=O)c3cc(O)c(O)c(O)c3)c2)C1OC(=O)c1cc(O)c(O)c(OC(=O)c2cc(O)c(O)c(O)c2)c1)c1cc(O)c(O)c(OC(=O)c2cc(O)c(O)c(O)c2)c1 (centres unmarked) [Tannic acid] | – | – | interference with binding of S-RBD to hACE2 [3]: interfered with the binding of the S-RBD to hACE2 in a dose-dependent manner; Kd ([1]; read-out: ACE2 K D, SPR, 25 °C, 1:1 binding model): 8.55 µM; prevention of S-RBD binding to hACE2 [4]: prevented S-RBD from binding to hACE2 |
| Cc1ccc([C@@H]2O[C@H](CO)[C@@H](O)[C@H](O)[C@H]2O)cc1Cc1ccc(-c2ccc(F)cc2)s1 [Canagliflozin] | – | – | Kd [2, 6]: 23.1 µM |
| COC(=O)C1=CO[C@@H](O[C@@H]2O[C@H](CO)[C@@H](O)[C@H](O)[C@H]2O)[C@@H]2C(CO)=CC[C@H]12 [Geniposide] | – | 54.9 | – |
| CC[C@H](C)C(=O)O[C@H]1CCC=C2C=C[C@H](C)[C@H](CC[C@@H]3C[C@@H](O)CC(=O)O3)[C@H]21 [Mevastatin] | – | 273 | – |
| Cc1cc(OCCCS(C)(=O)=O)cc(C)c1-c1cccc(COc2ccc3c(c2)OC[C@H]3CC(=O)O)c1 [Fasiglifam] | 10.5 | 42.2 | – |
| Sodium aescinate | – | – | Kd [2, 6]: 16.8 µM |
| Teichomycin | – | – | Kd [1, 5]: 250 µM |
| C[C@@H]1[C@H](O)[C@@H](C)/C=C/C=C/CC/C=C/C=C/C=C/C=C/C(O[C@H]2O[C@H](C)[C@@H](O)[C@H](N)[C@@H]2O)CC2O[C@](O)(CC(O)C(O)CCC(O)CC(O)CC(O)CC(=O)O[C@H]1C)CC(O)C2C(=O)O (some centres unmarked) [Nystatin] | – | – | Kd [2, 6]: 215 µM |
| CC(C)=CCC[C@](C)(O[C@@H]1O[C@H](CO[C@@H]2O[C@@H](CO)[C@H](O)[C@H]2O)[C@@H](O)[C@H](O)[C@H]1O)[C@H]1CC[C@]2(C)[C@@H]1[C@H](O)C[C@@H]1[C@@]3(C)CC[C@H](O[C@@H]4O[C@H](CO)[C@@H](O)[C@H](O)[C@H]4O[C@@H]4O[C@H](CO)[C@@H](O)[C@H](O)[C@H]4O)C(C)(C)[C@@H]3CC[C@]12C [Ginsenoside Rc] | – | 79.8 | – |
